Measured values as given in patent US12071425B2 (Genentech, Inc., priority 2018, dated 2024).
Structures can show the parent of a compound that is named as a salt.

Target: kinase domain of IRE1 alpha (His-tagged kinase dead construct KR, AA G547-L977, D688N) (Homo sapiens (Human), UniProt O75460, D688N)
Experiment: IRE1α TR-FRET competition binding assay
Conditions: competition with Kinase Tracer 236, 0.1 μM; one hour at room temperature
Procedure, shortened: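 Sf9-expressed kinase-dead KR construct (0.006 μM final) pre-incubated 1 h at 4° C with Eu anti-His antibody (0.002 μM) in HEPES pH 7.5/MgCl2/Brij/DTT buffer; Kinase Tracer 236 (ATP-competitive probe, 0.1 μM final) added with compound. 1 h at room temperature; tracer displacement read by TR-FRET (665/615 nm).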

kinase domain of IRE1 alpha (His-tagged kinase dead construct KR, AA G547-L977, D688N), sequence (O75460 547-977 D688N): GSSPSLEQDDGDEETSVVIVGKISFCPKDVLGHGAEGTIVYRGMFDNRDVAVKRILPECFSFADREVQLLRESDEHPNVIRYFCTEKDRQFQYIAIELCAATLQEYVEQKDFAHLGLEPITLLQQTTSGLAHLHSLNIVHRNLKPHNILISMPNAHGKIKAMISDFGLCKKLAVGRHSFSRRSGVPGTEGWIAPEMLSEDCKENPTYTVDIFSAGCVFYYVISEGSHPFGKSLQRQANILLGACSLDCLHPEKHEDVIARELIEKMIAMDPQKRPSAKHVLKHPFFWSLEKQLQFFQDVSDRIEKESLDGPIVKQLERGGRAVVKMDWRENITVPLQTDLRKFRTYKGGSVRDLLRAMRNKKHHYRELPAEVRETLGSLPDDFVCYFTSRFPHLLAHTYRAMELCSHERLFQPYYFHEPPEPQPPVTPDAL

IC50	Structure (SMILES)
0.0044 µM	C[C@H]1CNC[C@@H](Nc2nccc(-c3cccnc3Oc3ccc(NS(=O)(=O)Cc4ccccc4)c(F)c3F)n2)C1 [Compound 111, N-(2,3-difluoro-4-((3-(2-(((3S,5R)-5-methylpiperidin-3-yl)amino)pyrimidin-4-yl)pyridin-2-yl)oxy)phenyl)-1-phenylmethanesulfonamide hydrochloride]
0.0046 µM	O=S(=O)(Cc1ccccc1)Nc1ccc(Oc2ncccc2-c2ccnc(N[C@@H]3CNC[C@@H](F)C3)n2)c(F)c1F [Compound 112, N-(2,3-difluoro-4-((3-(2-(((3S,5S)-5-fluoropiperidin-3-yl)amino)pyrimidin-4-yl)pyridin-2-yl)oxy)phenyl)-1-phenylmethanesulfonamide]
0.011 µM	O=S(=O)(Cc1ccccc1)Nc1ccc(Oc2ncccc2-c2ccnc(N[C@H]3CCCNC3)n2)cc1C(F)(F)F [Compound 113, (S)-1-phenyl-N-(4-((3-(2-(piperidin-3-ylamino)pyrimidin-4-yl)pyridin-2-yl)oxy)-2-(trifluoromethyl)phenyl)methanesulfonamide]
0.0073 µM	Cc1cc(NS(=O)(=O)c2ccccc2Cl)cc(F)c1Oc1ncccc1-c1ccnc(N[C@H]2CCCNC2)n1 [Compound 114, (S)-2-chloro-N-(3-fluoro-5-methyl-4-((3-(2-(piperidin-3-ylamino)pyrimidin-4-yl)pyridin-2-yl)oxy)phenyl)benzenesulfonamide hydrochloride]
0.03 µM	CCCCS(=O)(=O)Nc1cc(C)c(Oc2ncccc2-c2ccnc(N[C@H]3CCCNC3)n2)c(F)c1 [Compound 115, (S)-N-(3-fluoro-5-methyl-4-((3-(2-(piperidin-3-ylamino)pyrimidin-4-yl)pyridin-2-yl)oxy)phenyl)butane-1-sulfonamide hydrochloride]
0.023 µM	Cc1cc(NS(=O)(=O)C2CCCC2)cc(F)c1Oc1ncccc1-c1ccnc(N[C@H]2CCCNC2)n1 [Compound 116, (S)-N-(3-fluoro-5-methyl-4-((3-(2-(piperidin-3-ylamino)pyrimidin-4-yl)pyridin-2-yl)oxy)phenyl)cyclopentanesulfonamide hydrochloride]
0.021 µM	Cc1cc(NS(=O)(=O)C2CCCCC2)cc(F)c1Oc1ncccc1-c1ccnc(N[C@H]2CCCNC2)n1 [Compound 117, (S)-N-(3-fluoro-5-methyl-4-((3-(2-(piperidin-3-ylamino)pyrimidin-4-yl)pyridin-2-yl)oxy)phenyl)cyclohexanesulfonamide hydrochloride]
0.047 µM	CCCS(=O)(=O)Nc1cc(C)c(Oc2ncccc2-c2ccnc(N[C@H]3CC[C@H](N)CC3)n2)c(F)c1 [Compound 118, N-(4-((3-(2-(((1r,4r)-4-aminocyclohexyl)amino)pyrimidin-4-yl)pyridin-2-yl)oxy)-3-fluoro-5-methylphenyl)propane-1-sulfonamide hydrochloride]
0.013 µM	Cc1cc(NS(=O)(=O)Cc2ccccc2)cc(F)c1Oc1ncccc1-c1ccnc(N[C@H]2CC[C@H](N)CC2)n1 [Compound 119, N-(4-((3-(2-(((1r,4r)-4-aminocyclohexyl)amino)pyrimidin-4-yl)pyridin-2-yl)oxy)-3-fluoro-5-methylphenyl)-1-phenylmethanesulfonamide hydrochloride]
0.11 µM	Cc1cc(NC(=O)C2CC2)cc(F)c1Oc1ncccc1-c1ccnc(N[C@H]2CC[C@H](N)CC2)n1 [Compound 120, N-(4-((3-(2-(((1r,4r)-4-aminocyclohexyl)amino)pyrimidin-4-yl)pyridin-2-yl)oxy)-3-fluoro-5-methylphenyl)cyclopropanecarboxamide hydrochloride]
0.026 µM	CCCS(=O)(=O)Nc1cc(F)c(Oc2ncccc2-c2ccnc(N[C@H]3CC[C@H](N)CC3)n2)c(Cl)c1 [Compound 121, N-(4-((3-(2-(((1r,4r)-4-Aminocyclohexyl)amino)pyrimidin-4-yl)pyridin-2-yl)oxy)-3-chloro-5-fluorophenyl)propane-1-sulfonamide hydrochloride]
0.02 µM	CCCS(=O)(=O)Nc1cc(F)c(Oc2ncccc2-c2ccnc(N[C@H]3CC[C@H](N)CC3)n2)c(F)c1 [Compound 122, N-(4-((3-(2-(((1r,4r)-4-aminocyclohexyl)amino)pyrimidin-4-yl)pyridin-2-yl)oxy)-3,5-difluorophenyl)propane-1-sulfonamide hydrochloride]
0.05 µM	Cc1c(NS(=O)(=O)c2ccccc2Cl)ccc(Oc2ncccc2-c2ccnc(N[C@H]3CCCNC3)n2)c1C [Compound 123, (S)-2-Chloro-N-(2,3-dimethyl-4-((3-(2-(piperidin-3-ylamino)pyrimidin-4-yl)pyridin-2-yl)oxy)phenyl)benzenesulfonamide]
0.21 µM	CCCS(=O)(=O)Nc1cc(C)c(Oc2ncccc2-c2ccnc(N[C@H]3CCCNC3)n2)cc1C [Compound 124, (S)-N-(2,5-Dimethyl-4-((3-(2-(piperidin-3-ylamino)pyrimidin-4-yl)pyridin-2-yl)oxy)phenyl)propane-1-sulfonamide]
0.027 µM	Cc1cc(Oc2ncccc2-c2ccnc(N[C@H]3CCCNC3)n2)c(C)cc1NS(=O)(=O)c1ccccc1Cl [Compound 125, (S)-2-chloro-N-(2,5-dimethyl-4-((3-(2-(piperidin-3-ylamino)pyrimidin-4-yl)pyridin-2-yl)oxy)phenyl)benzenesulfonamide]
0.28 µM	CCCS(=O)(=O)Nc1cc(C)c(Oc2ncccc2-c2ccnc(N[C@H]3CCCNC3)n2)cc1C [Compound 126, (S)-N-(2,5-Dimethyl-4-((3-(2-(piperidin-3-ylamino)pyrimidin-4-yl)pyridin-2-yl)oxy)phenyl)propane-1-sulfonamide]
0.37 µM	CCCS(=O)(=O)Nc1ccc(F)c(Oc2ncccc2-c2ccnc(N[C@H]3CCCNC3)n2)c1 [Compound 127, (S)-N-(4-fluoro-3-((3-(2-(piperidin-3-ylamino)pyrimidin-4-yl)pyridin-2-yl)oxy)phenyl)propane-1-sulfonamide]
0.011 µM	O=S(=O)(Nc1ccc(F)c(Oc2ncccc2-c2ccnc(N[C@H]3CCCNC3)n2)c1)c1ccccc1Cl [Compound 128, (S)-2-Chloro-N-(4-fluoro-3-((3-(2-(piperidin-3-ylamino)pyrimidin-4-yl)pyridin-2-yl)oxy)phenyl)benzenesulfonamide]
0.23 µM	Cc1c(NC(=O)CC2CCCCC2)ccc(Oc2ncccc2-c2ccnc(N[C@H]3CCCNC3)n2)c1C [Compound 129, (S)-2-Cyclohexyl-N-(2,3-dimethyl-4-((3-(2-(piperidin-3-ylamino)pyrimidin-4-yl)pyridin-2-yl)oxy)phenyl)acetamide]
0.17 µM	Cc1c(NC(=O)Cc2ccc(Cl)cc2)ccc(Oc2ncccc2-c2ccnc(N[C@H]3CCCNC3)n2)c1C [Compound 130, (S)-2-(4-Chlorophenyl)-N-(2,3-dimethyl-4-((3-(2-(piperidin-3-ylamino)pyrimidin-4-yl)pyridin-2-yl)oxy)phenyl)acetamide]
0.059 µM	Cc1cc(NS(=O)(=O)c2ccccc2Cl)cc(C)c1Oc1ncccc1-c1ccnc(N[C@H]2CCCNC2)n1 [Compound 131, (S)-2-Chloro-N-(3,5-dimethyl-4-((3-(2-(piperidin-3-ylamino)pyrimidin-4-yl)pyridin-2-yl)oxy)phenyl)benzenesulfonamide hydrochloride]
0.032 µM	O=S(=O)(Nc1cccc(Oc2ncccc2-c2ccnc(N[C@H]3CCCNC3)n2)c1)c1ccccc1Cl [Compound 132, (S)-2-Chloro-N-(3-((3-(2-(piperidin-3-ylamino)pyrimidin-4-yl)pyridin-2-yl)oxy)phenyl)benzenesulfonamide hydrochloride]
0.12 µM	O=S(=O)(Cc1ccccc1)Nc1cccc(Oc2ncccc2-c2ccnc(N[C@H]3CCCNC3)n2)c1 [Compound 133, (S)-1-Phenyl-N-(3-((3-(2-(piperidin-3-ylamino)pyrimidin-4-yl)pyridin-2-yl)oxy)phenyl)methanesulfonamide hydrochloride]
0.021 µM	O=S(=O)(Nc1ccc(Oc2ncccc2-c2ccnc(N[C@H]3CCCNC3)n2)cc1)c1ccccc1Cl [Compound 134, (S)-2-Chloro-N-(4-((3-(2-(piperidin-3-ylamino)pyrimidin-4-yl)pyridin-2-yl)oxy)phenyl)benzenesulfonamide hydrochloride]
0.041 µM	Cc1ccc(NS(=O)(=O)c2ccccc2Cl)cc1Oc1ncccc1-c1ccnc(N[C@H]2CCCNC2)n1 [Compound 135, (S)-2-Chloro-N-(4-methyl-3-((3-(2-(piperidin-3-ylamino)pyrimidin-4-yl)pyridin-2-yl)oxy)phenyl)benzenesulfonamide hydrochloride]
0.2 µM	Cc1ccc(NS(=O)(=O)Cc2ccccc2)cc1Oc1ncccc1-c1ccnc(N[C@H]2CCCNC2)n1 [Compound 136, (S)—N-(4-Methyl-3-((3-(2-(piperidin-3-ylamino)pyrimidin-4-yl)pyridin-2-yl)oxy)phenyl)-1-phenylmethanesulfonamide hydrochloride]
0.0074 µM	O=S(=O)(Nc1ccc(Cl)c(Oc2ncccc2-c2ccnc(N[C@H]3CCCNC3)n2)c1F)c1ccccc1Cl [Compound 137, (S)-2-Chloro-N-(4-chloro-2-fluoro-3-((3-(2-(piperidin-3-ylamino)pyrimidin-4-yl)pyridin-2-yl)oxy)phenyl)benzenesulfonamide hydrochloride]
0.015 µM	O=S(=O)(Cc1ccccc1)Nc1ccc(Cl)c(Oc2ncccc2-c2ccnc(N[C@H]3CCCNC3)n2)c1F [Compound 138, (S)—N-(4-Chloro-2-fluoro-3-((3-(2-(piperidin-3-ylamino)pyrimidin-4-yl)pyridin-2-yl)oxy)phenyl)-1-phenylmethanesulfonamide]
0.046 µM	Cc1c(NS(=O)(=O)c2ccccc2Cl)cccc1Oc1ncccc1-c1ccnc(N[C@H]2CCCNC2)n1 [Compound 139, (S)-2-Chloro-N-(2-methyl-3-((3-(2-(piperidin-3-ylamino)pyrimidin-4-yl)pyridin-2-yl)oxy)phenyl)benzenesulfonamide hydrochloride]
